For 18 compounds, T/C results are on record in PubChem BioAssay AID330 (DTP/NCI, 2004).

This assay deals with P388 leukemia ip, CD2F1 mice, survival T/C. The experiment in a line: NCI In Vivo Anticancer Drug Screen. Data for tumor model P388 Leukemia (intraperitoneal) in CD2F1 (CDF1) mice. Particulars: endpoint: median survival time, higher = longer survival. A digest of the protocol:
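Mice carrying the transplanted tumor received test compound or vehicle. Survival was recorded in each group, and the value is the treated-group measurement divided by that of the vehicle-treated control group.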

Setting [1] is: dose: 12.5 mg/kg/injection, schedule: Q01DX009 (ip), vehicle: saline.
[2] abbreviates: dose: 25.0 mg/kg/injection, schedule: Q01DX009 (ip), vehicle: saline.
[3] abbreviates: dose: 50.0 mg/kg/injection, schedule: Q01DX009 (ip), vehicle: saline.
Setting [4] is: dose: 60.0 mg/kg/injection, schedule: Q01DX005 (ip), vehicle: saline with Tween-80.
Where [5] appears, read: dose: 120.0 mg/kg/injection, schedule: Q01DX005 (ip), vehicle: saline with Tween-80.
Where [6] appears, read: dose: 240.0 mg/kg/injection, schedule: Q01DX005 (ip), vehicle: saline with Tween-80.
[7] abbreviates: dose: 50.0 mg/kg/injection, schedule: Q01DX009 (ip), vehicle: saline with Tween-80.
The mark [8] stands for this setting: dose: 100.0 mg/kg/injection, schedule: Q01DX009 (ip), vehicle: saline with Tween-80.
[9] abbreviates: dose: 200.0 mg/kg/injection, schedule: Q01DX009 (ip), vehicle: saline with Tween-80.

SMILES strings stand for the structures. Several values for one entry are separate records, joined by “and”; a condition that tells them apart may be missing. Equal entries are not always repeated. Inconclusive results and toxic doses are left out.

Take `O=C1CC2c3c(OCc4ccccc4)cc(OCc4ccccc4)cc3OC2O1` (stereo not drawn): the T/C is, setting by setting: (dose: 8.75 mg/kg/injection, schedule: Q01DX005 (ip), vehicle: Klucel (hydroxypropylcellulose) (HPC)) 88 % of control; (dose: 17.5 mg/kg/injection, schedule: Q01DX005 (ip), vehicle: Klucel (hydroxypropylcellulose) (HPC)) 91 % of control; (dose: 35.0 mg/kg/injection, schedule: Q01DX005 (ip), vehicle: Klucel (hydroxypropylcellulose) (HPC)) 88 % of control.

On to `CCn1c(=O)c2c(ncn2C)n(C)c1=O`, for which the T/C is, setting by setting: (dose: 6.25 mg/kg/injection, schedule: Q01DX009 (ip), vehicle: saline) 100 % of control; under setting [1], 101 % of control; under setting [2], 100 % of control; under setting [3], 100 % of control.

Turning to `CN(C1=NC1(C)C)c1ccccc1`, the T/C by setting is: under setting [3], 96 % of control; (dose: 100.0 mg/kg/injection, schedule: Q01DX009 (ip), vehicle: saline) 94 % of control; (dose: 200.0 mg/kg/injection, schedule: Q01DX009 (ip), vehicle: saline) 91 % of control.

Take `COc1ccc(-c2c(C)oc(C)c2C(C)=O)cc1OC`: the T/C runs as follows: (dose: 60.0 mg/kg/injection, schedule: Q01DX005 (ip), vehicle: Klucel (hydroxypropylcellulose) (HPC)) 98 % of control; (dose: 120.0 mg/kg/injection, schedule: Q01DX005 (ip), vehicle: Klucel (hydroxypropylcellulose) (HPC)) 102 % of control; (dose: 240.0 mg/kg/injection, schedule: Q01DX005 (ip), vehicle: Klucel (hydroxypropylcellulose) (HPC)) 101 % of control.

As to `CCCCCCCCCCCC[N+]1([O-])CCCCC1`, the T/C is 89 % of control under setting [1] and 91 % of control under setting [2].

For the compound `C=CC(=O)NC(=O)Nc1ccccc1Cl`, the T/C was 102 % of control (dose: 6.25 mg/kg/injection, schedule: Q01DX009 (ip), vehicle: Klucel (hydroxypropylcellulose) (HPC)); 106 % of control (dose: 12.5 mg/kg/injection, schedule: Q01DX009 (ip), vehicle: Klucel (hydroxypropylcellulose) (HPC)); 109 % of control and 118 % of control (dose: 25.0 mg/kg/injection, schedule: Q01DX009 (ip), vehicle: Klucel (hydroxypropylcellulose) (HPC)).

With `COC1(OC)C2(Cl)CC(C(=O)O)C1(Cl)C(Cl)=C2Cl` (stereo not drawn), the T/C runs as follows: under setting [4], 102 % of control; under setting [5], 99 % of control; under setting [6], 104 % of control.

As for `COc1ccc(C(=O)C2Cc3c(ccc4ccccc34)OC2=O)cc1` (stereo not drawn), the T/C under setting [7] is 95 % of control, the T/C under setting [8] is 91 % of control and the T/C under setting [9] was 88 % of control.

Regarding `CCn1c2ccccc2c2cc(N=Nc3cc(N)ccc3N(C)C)ccc21`, the T/C by setting is: (dose: 50.0 mg/kg/injection, schedule: Q01DX005 (ip), vehicle: saline with Tween-80) 87 % of control; (dose: 100.0 mg/kg/injection, schedule: Q01DX005 (ip), vehicle: saline with Tween-80) 87 % of control; (dose: 200.0 mg/kg/injection, schedule: Q01DX005 (ip), vehicle: saline with Tween-80) 87 % of control.

As to `COc1cc(C2c3c(oc4ccccc4c3=O)Oc3oc4ccccc4c(=O)c32)cc(OC)c1O`, the T/C runs as follows: (dose: 15.0 mg/kg/injection, schedule: Q01DX005 (ip), vehicle: saline with Tween-80) 92 % of control; (dose: 30.0 mg/kg/injection, schedule: Q01DX005 (ip), vehicle: saline with Tween-80) 96 % of control; under setting [4], 92 % of control; under setting [5], 95 % of control; under setting [6], 98 % of control.

As for `Cc1ccc(NS(=O)(=O)c2ccc([N+](=O)[O-])cc2)cc1`, the T/C runs as follows: under setting [8], 100 % of control; (dose: 100.0 mg/kg/injection, schedule: Q04DX003 (ip), vehicle: saline with Tween-80) 100 % of control; (dose: 200.0 mg/kg/injection, schedule: Q04DX003 (ip), vehicle: saline with Tween-80) 100 % of control; (dose: 400.0 mg/kg/injection, schedule: Q01DX009 (ip), vehicle: saline with Tween-80) 90 % of control; (dose: 400.0 mg/kg/injection, schedule: Q04DX003 (ip), vehicle: saline with Tween-80) 100 % of control.

Consider `CC(=O)CC(=O)CCC(=O)Nc1cccc([N+](=O)[O-])c1`, for which the T/C reads like this: under setting [4], 106 % of control; under setting [5], 100 % of control; under setting [6], 105 % of control.

Consider `O=C(N/N=C\c1cc(Br)cc(Br)c1O)N/N=C/c1cc(Br)cc(Br)c1O`, for which the T/C by setting is: (dose: 6.25 mg/kg/injection, schedule: Q01DX009 (ip), vehicle: saline with Tween-80) 100 % of control and 110 % of control; (dose: 12.5 mg/kg/injection, schedule: Q01DX009 (ip), vehicle: distilled water + Tween-80) 98 % of control; (dose: 20.0 mg/kg/injection, schedule: Q01DX005 (ip), vehicle: suspension in saline) 106 % of control; (dose: 20.0 mg/kg/injection, schedule: Q01DX005 (iv), vehicle: suspension in saline) 101 % of control; (dose: 25.0 mg/kg/injection, schedule: Q01DX009 (ip), vehicle: distilled water + Tween-80) 106 % of control; (dose: 40.0 mg/kg/injection, schedule: Q01DX005 (iv), vehicle: suspension in saline) 101 % of control. In addition, the T/C was 120 % of control (dose: 50.0 mg/kg/injection, schedule: Q01DX009 (ip), vehicle: distilled water + Tween-80); 103 % of control (dose: 50.0 mg/kg/injection, schedule: Q01DX009 (oral), vehicle: saline with Tween-80); 100 % of control (dose: 80.0 mg/kg/injection, schedule: Q01DX005 (iv), vehicle: suspension in saline); 105 % of control (dose: 100.0 mg/kg/injection, schedule: Q01DX009 (oral), vehicle: saline with Tween-80); 158 % of control (dose: 160.0 mg/kg/injection, schedule: Q01DX005 (ip), vehicle: suspension in saline); 100 % of control (dose: 160.0 mg/kg/injection, schedule: Q01DX005 (iv), vehicle: suspension in saline). Moreover, the T/C was 108 % of control (dose: 200.0 mg/kg/injection, schedule: Q01DX009 (oral), vehicle: saline with Tween-80); 160 % of control (dose: 280.0 mg/kg/injection, schedule: Q01DX005 (ip), vehicle: suspension in saline); 104 % of control (dose: 400.0 mg/kg/injection, schedule: Q01DX009 (oral), vehicle: saline with Tween-80); 104 % of control (dose: 800.0 mg/kg/injection, schedule: Q01DX009 (oral), vehicle: saline with Tween-80); 106 % of control (dose: 1600.0 mg/kg/injection, schedule: Q01DX009 (oral), vehicle: saline with Tween-80).

`O=C(/C=C/c1ccc(OCc2ccccc2)cc1)c1ccc(C(F)(F)F)cc1`: the T/C reads like this: (dose: 12.5 mg/kg/injection, schedule: Q01DX009 (ip), vehicle: saline with Tween-80) 94 % of control; (dose: 25.0 mg/kg/injection, schedule: Q01DX009 (ip), vehicle: saline with Tween-80) 100 % of control; under setting [7], 90 % of control and 93 % of control; under setting [9], 95 % of control.

Take `CCC(C)n1c(C)nc2ncn(-c3ccccc3)c2c1=O` (stereo not drawn): the T/C runs as follows: (dose: 50.0 mg/kg/injection, schedule: Q01DX005 (ip), vehicle: Klucel (hydroxypropylcellulose) (HPC)) 100 % of control; (dose: 100.0 mg/kg/injection, schedule: Q01DX005 (ip), vehicle: Klucel (hydroxypropylcellulose) (HPC)) 103 % of control; (dose: 200.0 mg/kg/injection, schedule: Q01DX005 (ip), vehicle: Klucel (hydroxypropylcellulose) (HPC)) 105 % of control.

In the case of `O=C(Nc1ccc(O)cc1)C(F)(F)F`, the T/C reads like this: (dose: 50.0 mg/kg/injection, schedule: Q01DX009 (ip), vehicle: Klucel (hydroxypropylcellulose) (HPC)) 93 % of control; (dose: 100.0 mg/kg/injection, schedule: Q01DX009 (ip), vehicle: Klucel (hydroxypropylcellulose) (HPC)) 95 % of control; (dose: 200.0 mg/kg/injection, schedule: Q01DX009 (ip), vehicle: Klucel (hydroxypropylcellulose) (HPC)) 90 % of control.

`C[Si](C)(C)/N=C(/O[Si](C)(C)C)C(F)(F)F`: the T/C was 101 % of control (dose: 60.0 mg/kg/injection, schedule: Q01DX005 (ip), vehicle: saline); 111 % of control (dose: 120.0 mg/kg/injection, schedule: Q01DX005 (ip), vehicle: saline); 108 % of control (dose: 240.0 mg/kg/injection, schedule: Q01DX005 (ip), vehicle: saline).

Take `Cc1cc2nc(CC(=O)c3ccccc3)c(=O)[nH]c2cc1C`: the T/C is, setting by setting: under setting [4], 90 % of control; under setting [5], 90 % of control; under setting [6], 87 % of control.
